Source: patent US20040235007A1, “Method for detecting negatively supercoiled DNA” (National Institute of Genetics, priority 2003, published 2004)

Tests used:
[1] = system: hsp70-coding region; experiment: Southern analysis of psoralen crosslinking in salivary glands; type: cell-based, Drosophila melanogaster; conditions: heat-shocked salivary gland chromosomes treated with α-amanitin prior to the crosslinking step; FIG. 3 lanes 6 and 7
Protocol: (§1) Drosophila melanogaster Oregon R was grown at 18° C. According to the test protocol, some third-instar larvae were subjected to heat shock treatment; i.e., the larvae were collected in a polypropylene tube, and the tube was submerged in a 37° C. water bath for 10 minutes. Salivary glands were obtained through dissection of the larvae in a dissection buffer (10 mM HEPES-KOH (pH 7.6), 5 mM MgCl2, 5 mM KCl, 130 mM NaCl, 1% polyethylene glycol 6000). Also according to the test protocol, some of the salivary gland specimens were exposed to X-ray irradiation for 60 minutes at a dose rate of about 3 Gy/min (TORREX CABINET X-RAY SYSTEM Model TRX2800, Faxitron), whereby nicks were introduced into DNA.
Application of heat shock and dissection of larvae were performed in a manner similar to those employed for staining. […]
After electrophoresis, the gel was incubated with a denaturing solution (0.5M NaOH, 1.5M NaCl) at 65° C. for 100 minutes for reverse crosslinking of DNA with psoralen. […] Hybridization signals were detected by use of X-ray film. […]
The protocol will be described briefly as follows. […] The DNA fragments were blotted onto a nylon membrane. hsp70 located at 87A7 (FIG. 1, CRs and DDS) was analyzed using probes through the Southern method. […]

[2] = system: negative supercoils of DNA on salivary gland chromosomes; experiment: Staining of salivary gland chromosomes with biotinylated psoralen / Alexa 488-labeled streptavidin; type: cell-based, Drosophila melanogaster
Protocol: as §1
Four or five pairs of salivary glands were treated with a dissection buffer (40 μL) containing 0.01% digitonin and rinsed with a dissection buffer containing no digitonin. Subsequently, the resultant salivary glands were treated with a dissection buffer containing 0.2 ng/ml biotinylated psoralen for 10 minutes. […] Br-UTP was detected with anti-BrdU monoclonal antibody (Roche) and rhodamin-labeled anti-mouse IgG antibody.
Biotinylated psoralen was detected with Alexa 488-labeled streptavidin (Molecular Probe). […] Fluoroimages were analyzed with a Carl Zeiss Axioplan 2 microscope and IP lab software.
In order to visualize negative supercoils of DNA on salivary gland chromosomes throughout the entire genome, we have extended the psoralen crosslinking protocol, using a protocol in which biotinylated psoralen is detected with fluorescence-labeled streptavidin. […] Biotinylated psoralen was detected with Alexa 488-labeled streptavidin. […] Such signals were not detected when the chromosomes had been treated with a psoralen-free buffer, or when the crbsslinking step was not performed after treatment with psoralen. […] When chromosomes had been irradiated with X-ray (180 Gy) before crosslinking with biotinylated psoralen to thereby introduce nicks into the DNA, psoralen signals which may otherwise appear in interbands and puffs were not detected (FIGS. 5A to 5C). […]

[3] = heat shocked larvae, α-amanitin treatment prior to crosslinking, FIGS. 7D to 7F

For α-Amanitin, the “crosslink-related signals (psoralen crosslinking, Southern)” value [1] was “substantially no crosslink-related signals were detected”, the “configuration of heat shock puffs” value [2, 3] was “did not affect” and the “psoralen signals in heat shock puffs” value [2, 3] was “not detected”. The “psoralen signals in interbands and puffs” value ([2]; non-heat shocked, 3 μg/mL α-amanitin before crosslinking with biotinylated psoralen, FIGS. 5D and 5E) was “undetected”.
